Results published in paper PMC3605511, “Tumor P-Glycoprotein Correlates with Efficacy of PF-3758309 in in vitro and in vivo Models of Colorectal Cancer” (Frontiers in Pharmacology, 2013).

Assays:
[1] = test system: SW480 cell line xenograft; experiment: CRC cell line xenograft efficacy, SW480; assay type: in vivo, mice; settings: 25 mg/kg orally twice daily, 14–28 days, end of study tumor volumes
Description: (§1) For cell line xenografts, CRC cells were harvested in exponential phase growth and resuspended in a 1:1 mixture of serum-free RPMI 1640 and Matrigel (BD Biosciences). Five to ten million cells per mouse were injected subcutaneously into the flank using a 23-gauge needle. Mice were monitored daily for signs of toxicity and were weighed twice weekly. Tumor size was evaluated twice per week by caliper measurements using the following formula: tumor volume = length × width^2 × 0.52. When tumors reached 200–300 mm^3 mice were randomized into two groups with at least 10 tumors per group. Mice were then treated for 14–28 days (until control tumor volume reach ∼1500 mm^3) with either vehicle control (0.5% methylcellulose), or PF-3758309 (25 mg/kg) twice daily by oral gavage.
(§2) Human tumor xenograft models were used to evaluate the efficacy of PF-309 in vivo. Eleven different CRC cell line tumor xenografts were treated with 25 mg/kg PF-309 twice daily by oral gavage for 14–28 days (until control tumor volumes reached ∼1500 mm^3). Tumor volumes were measured throughout the study and the % growth inhibition was calculated from the average end of study tumor volumes by:
(§3) % Growth Inhibition= (average control volume−average treated volume)/average control volume×100%

SW480 = experiment: Cell proliferation assay, SW480; assay type: cell-based; settings: Homo sapiens; SW480, 72 h, SRB assay
Description: (§4) Cytotoxic/proliferation effects were determined using the sulforhodamine B (SRB) assay (Skehan et al., [1990]) or by resazurin. Briefly, cells in logarithmic growth phase were transferred to 96 well flat bottom plates with lids. One-hundred microliter cell suspensions containing 1500–5000 viable cells were plated into each well and incubated overnight prior to exposure with increasing concentrations of PF-309 for 3–5 days, dependent upon cell type. Media was removed and cells were fixed with cold 10% trichloroacetic acid for 30 min at 4°C. Cells were then washed with water and stained with 0.4% SRB (Fisher Sci., Pittsburgh, PA, USA) for 30 min at room temperature, washed again with 1% acetic acid, followed by stain solubilization with 10 mM tris at room temperature. The plate was then read on a plate reader (Biotek Synergy 2, Winooski, VT, USA) set at an absorbance wavelength of 565 nm. Cell proliferation curves were derived from the raw absorbance (OD) data.
(§5) Since PF-309 appeared to be a strong P-gp and BCRP substrates, we sought to evaluate if the transporters influenced sensitivity in vitro. We evaluated the sensitivity of CRC cell lines to PF-309 treatment in a panel of 27 lines. Cells were exposed to PF-309 at a range of concentrations for 72 h and cell content measured by SRB assay (see Pitts et al., [2013]). […]

CUCRC036 CRC PDTX model = experiment: Patient derived tumor xenograft efficacy, CUCRC036; assay type: in vivo, mice; settings: 25 mg/kg orally twice daily, 22–56 days, end of study tumor volumes
Description: (§6) For patient tumor xenografts, surgical specimens of patients undergoing either removal of a primary or metastatic tumor at the University of Colorado Hospital are implanted subcutaneously into five mice for each patient with a 10-G trochar. After a subsequent growth and passage in mice, tumors are excised, and expanded into cohorts for treatment (n = 6–15 per group). Mice were treated with PF-309 or vehicle (0.5% methylcellulose) for 22–56 days (until control tumor volume reach ∼1500 mm^3) twice daily (BID) by oral gavage (PO). Monitoring of mice and measurements of tumors were conducted as described above. % Growth Inhibition= (average control volume−average treated volume)/average control volume×100% In addition to the cell line xenografts, we also treated 12 different patient derived tumor xenograft (PDTX) CRC models with PF-309 (Figure 6). We were unable to assess how ABCB1 gene expression correlated with efficacy in these models. The PDTX models are propagated in vivo, are not immortalized, and are not grown in in vitro culture. […] Tumor and plasma sample pairs were collected from animals at the end of study for eight tumor models (three cell line xenografts and five PDTX models) and concentrations of PF-309 were measured. […]

HT29 = experiment: Cell proliferation assay, HT29; assay type: cell-based; settings: Homo sapiens, HT-29; HT29, 72 h, SRB assay
Description: as §4, §5

[2] = test system: HCT15 cell line xenograft; experiment: CRC cell line xenograft efficacy, HCT15; assay type: in vivo, mice; settings: 25 mg/kg orally twice daily, 14–28 days, end of study tumor volumes
Description: as §1, §2, §3

CUCRC006 CRC PDTX model = experiment: Patient derived tumor xenograft efficacy, CUCRC006; assay type: in vivo, mice; settings: 25 mg/kg orally twice daily, 22–56 days, end of study tumor volumes
Description: as §6

DLD-1 = experiment: Cell proliferation assay, DLD-1; assay type: cell-based, human
Description: as §4
In a subset of CRC cell lines, western blotting, and rhodamine efflux was used to verify the expression and function of P-gp. Consistent with the gene expression data, the sensitive cell lines, RKO, HCT116, and Colo205 show no P-gp expression and no functional P-gp, and the resistant lines, SW948, HCT15, and SW1116 express functional P-gp (Figures 3A,B). […]

[3] = test system: Colo201 cell line xenograft; experiment: CRC cell line xenograft efficacy, Colo201; assay type: in vivo, mice; settings: 25 mg/kg orally twice daily, 14–28 days, end of study tumor volumes
Description: as §1, §2, §3

SW948 = experiment: Cell proliferation assay, SW948; assay type: cell-based; settings: Homo sapiens; SW948, 72 h, SRB assay
Description: as §4, §5

IC50 (SW480): 10.1 ± 2.5 nM
IC50 (HT29): > 1000 nM
shift in the IC50 by shRNA knockdown of P-gp (DLD-1; DLD-1 cells, P-gp knockdown vs control shRNA): four to six fold
IC50 (DLD-1; Homo sapiens, DLD-1, PF-309 alone, 72 h): 278 nM
IC50 (SW948): > 1000 nM
SMILES: Cc1nc(Nc2n[nH]c3c2CN(C(=O)N[C@H](CN(C)C)c2ccccc2)C3(C)C)c2sccc2n1 [PF-309]
% Growth inhibition [1]: 42%
% Growth inhibition (CUCRC036 CRC PDTX model): 35%
% Growth inhibition [2]: 18%
% Growth inhibition (CUCRC006 CRC PDTX model): 32%
% Growth inhibition [3]: 45%
